Earlier results as cited in patent US8697141B2, “Method and composition for preventing and healing osteonecrosis of the jaw” (Micropure, Inc., priority 2008, dated 2014).
Read-outs that look alike come from different tables or passages of the source.

Legend:
[1] = tested on: human gingival fibroblasts; conditions: 0.05 mM
[2] = tested on: ONJ; conditions: oral users, 208 patients
[3] = tested on: keratinocytes; conditions: low concentrations
[4] = tested on: human gingival fibroblasts; conditions: low concentrations
[5] = tested on: bacteria; conditions: exposures as short as 10 seconds
[6] = in vivo
[7] = tested on: osteoblasts; conditions: chlorhexidine at 0.12%
[8] = tested on: S. mutans; conditions: 200 ppm, within 10 seconds of application
[9] = tested on: DUWL biofilms; conditions: after 5 days of treatment
[10] = tested on: periodontal ligament cells; conditions: chlorhexidine at 0.12%
[11] = tested on: Bacteroides gingivalis; conditions: 200 ppm, at several time points and different pH
[12] = tested on: human gingival fibroblasts; conditions: chlorhexidine at 0.12%
[13] = tested on: ONJ; conditions: 0.12% chlorhexidine; out of 24 patients
[14] = tested on: human osteoblast-like cells; conditions: high concentrations over a prolonged time interval
[15] = tested on: endothelial cells; conditions: dose and time dependent
[16] = tested on: fibroblasts; conditions: dose and time dependent
[17] = tested on: osteoblasts; conditions: dose and time dependent
[18] = tested on: bone vascularity; conditions: rats
[19] = tested on: capillary neoangiogenesis
[20] = tested on: C. albicans; conditions: time and dose dependent

OO [hydrogen peroxide]
induction of apoptosis ([1]; 1.0 mM): induced apoptosis at all concentrations tested

NCCCC(O)(P(=O)(O)O)P(=O)(O)O [alendronate]
ONJ prevalence rate [2]: 4%

O=P(O)(O)C(O)(Cn1ccnc1)P(=O)(O)O [zoledronic acid]
apoptosis of oral mucosal cells [3]: gene-regulated induced apoptosis
apoptosis of oral mucosal cells [4]: gene-regulated induced apoptosis

stabilized chlorine dioxide
reduction in bacteria [5]: dramatic reduction in bacteria
VSCs in expired mouth air [6]: remarkable decrease in VSCs
LDH release compared with controls [7]: did not increase the release of LDH
in vitro kill rate [8]: 99%
heterotrophic plate count (HPC) value [9]: 0
LDH release compared with controls [10]: did not increase the release of LDH
in vitro kill [11]: 100%
LDH release compared with controls [12]: did not increase the release of LDH

[H]/N=C(\N/C(=N/[H])NCCCCCCNC(=N)NC(=N)Nc1ccc(Cl)cc1)Nc1ccc(Cl)cc1 [chlorhexidine]
patients with ONJ progression [13]: 13 patients
patients with ONJ resolution [13]: 3 patients
patients with no change in ONJ status [13]: 8 patients
LDH release compared with controls [7]: elevated and significant LDH release
cell survival [14]: adverse effect on the survival
LDH release compared with controls [10]: elevated and significant LDH release
LDH release compared with controls [12]: elevated and significant LDH release

N=C(NCCCCCCNC(=N)NC(=N)Nc1ccc(Cl)cc1)NC(=N)Nc1ccc(Cl)cc1.O=C(O)[C@H](O)[C@@H](O)[C@H](O)[C@H](O)CO.O=C(O)[C@H](O)[C@@H](O)[C@H](O)[C@H](O)CO [chlorhexidine digluconate]
apoptosis and necrosis [15]: induced apoptosis and led to necrosis
apoptosis and necrosis [16]: induced apoptosis and led to necrosis
apoptosis and necrosis [17]: induced apoptosis and led to necrosis

NCCC(O)(P(=O)(O)O)P(=O)(O)O [pamidronate]
bone vascularity [18]: reduce bone vascularity
new formation of capillaries from blood vessels [19]: inhibit the new formation of capillaries from blood vessels

[O][Cl+][O-] [chlorine dioxide]
induction of apoptosis ([1]; 0.1 mM and 0.5 mM ClO2): not to induce apoptosis significantly
potassium leakage [20]: marked increase
